Reference: patent US20250303156A1, “CONCOMITANT TREATMENT OF TTFIELDS AND HMG-CO A REDUCTASE INHIBITORS” (NOVOCURE GMBH, priority 2024, published 2025)

Test system: non small cell lung cancer (NSCLC)
Experiment: clinical study in non small cell lung cancer: survival with statins in addition to TTFields
Assay type: in vivo, human
Settings: statin plus Docetaxel plus TTFields compared to the same statin plus Docetaxel; FIGS. 5-7
Excerpt: In some aspects, the materials and methods described in Leal et al. “Tumor Treating Fields therapy with standard systemic therapy versus standard systemic therapy alone in metastatic non-small-cell lung cancer following progression on or after platinum-based therapy (LUNAR): a randomised, open-label, pivotal phase 3 study” Lancet Oncol. 2023 September; 24(9):1002-1017 can be used, such methods and materials are hereby incorporated by reference in its entirety herein. The disclosed experiments were based on a clinical trial in which subjects received Docetaxel or a combination of Docetaxel and TTFields. The patients also received statins during the clinical trial. The statins were not part of the clinical trial, however, the patients were previously on statins due to the chronic condition and continued to receive statins.

Structure (SMILES)	median survival of patients
CC(C)c1c(C(=O)Nc2ccccc2)c(-c2ccccc2)c(-c2ccc(F)cc2)n1CC[C@@H](O)C[C@@H](O)CC(=O)O [Atorvastatin, atorvastatin]	increase in median survival
CC(C)c1nc(N(C)S(C)(=O)=O)nc(-c2ccc(F)cc2)c1/C=C/[C@@H](O)C[C@@H](O)CC(=O)O [Rosuvastatin, rosuvastatin]	increase in median survival
